Results: US11959083B2, “Immunosuppression-reverting oligonucleotides inhibiting the expression of CD39” (Secarna Pharmaceuticals GmbH & Co. KG, priority 2016, dated 2024)
l = locked nucleic acid (LNA); d = 2'-deoxy (DNA)

Experiments:
hCD39 mRNA [1] = test: hCD39 mRNA knockdown efficacy screen in A-172 cells (single dose, gymnotic delivery, QuantiGene Singleplex); type: cell-based, human; settings: 10 μM, 3 days; for Relative hCD39 mRNA expression (compared to non-treated cells): second screening round; for Relative hCD39 mRNA expression (compared to non-treated cells) / Mean hCD39 mRNA expression (relative to untreated cells set as 1): normalized to HPRT1; for Mean hCD39 mRNA expression (relative to untreated cells set as 1): first screening round; for Residual hCD39 mRNA expression relative to untreated cells (set as 1): third screening round
Method: (§1) FIGS. 2A to 2D depict hCD39 mRNA knockdown efficacy of hCD39 antisense oligonucleotides in human cancer cell lines HDLM-2 (human Hodgkin Lymphoma) in a first and second screening round (FIGS. 2A-1 and 2A-2) and 2B-1 and 2B-2 and A-172 (human glioblastoma) in a first and second screening round (FIGS. 2C-1 and 2C-2) and 2D-1 and 2D-2. HDLM-2 and A-172 cells were treated for 3 days with 10 μM of the respective antisense oligonucleotide. As negative control, cells were treated with neg1, an antisense oligonucleotide having the sequence CGTTTAGGCTATGTACTT (SEQ ID NO:99) (described in WO2014154843 A1). Residual hCD39 mRNA expression relative to untreated cells is depicted. Expression values were normalized to expression of the housekeeping gene HPRT1. Depicted is the mean of triplicate wells+/−SD.
(§2) FIGS. 6A-6B depicts a third screening round where further antisense oligonucleotides were designed. These antisense oligonucleotides were based on efficient antisense oligonucleotides from the first and second screening round. Therefore, hCD39 antisense oligonucleotides were tested in human cancer cell lines HDLM-2 (human Hodgkin's lymphoma) (FIG. 6A) and A-172 (human glioblastoma) (FIG. 6B). HDLM-2 and A-172 cells were treated for 3 days with 10 μM of the respective antisense oligonucleotide. […] Residual hCD39 mRNA expression relative to untreated cells (set as 1) is depicted.
(§3) In order to analyze the efficacy of hCD39 antisense oligonucleotides of the present invention with regard to the knockdown of hCD39 mRNA expression in cancer cell lines, HDLM-2 (human Hodgkin Lymphoma, DSMZ) and A-172 (human glioblastoma, ATCC) cells were treated with a single dose (concentration: 10 μM without addition of any transfection reagent; this process is called gymnotic delivery) of the respective antisense oligonucleotide as shown in FIG. 2A to 2D. hCD39 and HPRT1 mRNA expression was analyzed three days later using the QuantiGene Singleplex assay (Affymetrix) and hCD39 expression values were normalized to HPRT1 values. […] Values of the mean normalized mRNA expression of hCD39 compared to non-treated cells are listed for A-172 (Table 4 for first screening round and Table 5 for second screening round) and HDLM-2 cells (Table 6 for first screening round and Table 7 for second screening round) in the following:
(§4) For a third screening round, new antisense oligonucleotides were designed. These antisense oligonucleotides were based on efficient antisense oligonucleotides from the first screening round with modifications in length, exact position on mRNA and chemical modification pattern. Therefore, hCD39 antisense oligonucleotides were tested in human cancer cell lines (FIG. 6A, Table 10) HDLM-2 (human Hodgkin's lymphoma) and (FIG. 6B, Table 11) A-172 (human glioblastoma). HDLM-2 and A-172 cells were treated for 3 days with 10 μM of the respective antisense oligonucleotide. […] Residual hCD39 mRNA expression relative to untreated cells (set as 1) is depicted.

hCD39 mRNA [2] = test: hCD39 mRNA knockdown efficacy screen in HDLM-2 cells (single dose, gymnotic delivery, QuantiGene Singleplex); type: cell-based, human; set-up: key to Relative hCD39 mRNA expression (compared to non-treated cells): *: values are below detection limit; settings: 10 μM, 3 days; for Relative hCD39 mRNA expression (compared to non-treated cells): second screening round, normalized to HPRT1; for Mean hCD39 mRNA expression normalized to HPRT1 relative to untreated control = 1: first screening round; for Residual hCD39 mRNA expression relative to untreated cells (set as 1): third screening round
Method: as §1, §2, §3, §4

| Substance | Relative hCD39 mRNA expression (compared to non-treated cells) (hCD39 mRNA [1]) | Relative hCD39 mRNA expression (compared to non-treated cells) (hCD39 mRNA [2]) | Mean hCD39 mRNA expression (relative to untreated cells set as 1) (hCD39 mRNA [1]) | Mean hCD39 mRNA expression normalized to HPRT1 relative to untreated control = 1 (hCD39 mRNA [2]) | Residual hCD39 mRNA expression relative to untreated cells (set as 1) (hCD39 mRNA [1]) | Residual hCD39 mRNA expression relative to untreated cells (set as 1) (hCD39 mRNA [2]) |
| --- | --- | --- | --- | --- | --- | --- |
| +C*+T*+C*C*A*G*C*G*T*A*A*G*+A*+T (antisense CTCCAGCGTAAGAT; sugars from the 5' end l3 d9 l2, all phosphorothioate, methylation of C not given here) [A04002H] | 0.96 | 0.53 | – | – | – | – |
| +C*+T*+G*A*C*T*G*A*A*T*T*T*G*+C*+C*+C (antisense CTGACTGAATTTGCCC; sugars from the 5' end l3 d10 l3, all phosphorothioate, methylation of C not given here) [A04021H] | 0.16 | 0.11 | 0.16 | 0.11 | – | – |
| +C*C*T*A*C*C*C*A*G*G*A*T*A*G*+T*+C (antisense CCTACCCAGGATAGTC; sugars from the 5' end l1 d13 l2, all phosphorothioate, methylation of C not given here) [A04035H] | 0.37 | 0.18 | – | 0.17 | – | – |
| +C*T*+T*G*C*C*A*T*A*G*A*G*G*C*+G*A*+A (antisense CTTGCCATAGAGGCGAA; sugars from the 5' end ldldddddddddddldl, all phosphorothioate, methylation of C not given here) [A04041H] | 0.24 | * | 0.46 | 0.18 | – | – |
| +G*+A*+G*A*G*A*A*T*G*T*A*G*G*T*+A*C*+C (antisense GAGAGAATGTAGGTACC; sugars from the 5' end l3 d11 l1 d1 l1, all phosphorothioate, methylation of C not given here) [A04048H] | 0.05 | 0.36 | 0.09 | 0.05 | – | – |
| +G*+A*+G*G*C*G*A*A*A*T*T*G*C*A*+G*+A (antisense GAGGCGAAATTGCAGA; sugars from the 5' end l3 d11 l2, all phosphorothioate, methylation of C not given here) [A04024H] | 0.45 | 0.15 | 0.45 | 0.15 | – | – |
| +G*+A*C*T*A*T*G*C*T*G*A*A*C*+C*+A*+C (antisense GACTATGCTGAACCAC; sugars from the 5' end l2 d11 l3, all phosphorothioate, methylation of C not given here) [A04023H] | 0.10 | 0.06 | 0.09 | 0.06 | – | – |
| +G*+A*G*T*A*C*A*A*C*T*G*A*+A*+C*+C (antisense GAGTACAACTGAACC; sugars from the 5' end l2 d10 l3, all phosphorothioate, methylation of C not given here) [A04018H] | 0.20 | 0.12 | 0.19 | 0.12 | – | – |
| +G*+C*+C*C*C*A*A*A*A*T*C*C*C*C*+C*+T*+G (antisense GCCCCAAAATCCCCCTG; sugars from the 5' end l3 d11 l3, all phosphorothioate, methylation of C not given here) [A04047H] | 0.43 | * | – | – | – | – |
| +G*+C*+C*C*T*G*A*T*G*T*T*T*G*+A*+A*+T (antisense GCCCTGATGTTTGAAT; sugars from the 5' end l3 d10 l3, all phosphorothioate, methylation of C not given here) [A04054H] | – | – | – | – | 0.60 | 0.13 |
| +G*+C*+C*T*T*G*A*A*C*A*C*T*G*C*+G*+A (antisense GCCTTGAACACTGCGA; sugars from the 5' end l3 d11 l2, all phosphorothioate, methylation of C not given here) [A04032H] | 0.10 | 0.01 | 0.19 | 0.06 | – | – |
| +G*+C*C*A*T*A*G*G*C*A*C*C*+T*+T*+C (antisense GCCATAGGCACCTTC; sugars from the 5' end l2 d10 l3, all phosphorothioate, methylation of C not given here) [A04004H] | 0.66 | 0.21 | 0.65 | 0.22 | – | – |
| +G*+G*+A*C*A*A*T*G*G*T*T*G*C*+T*C*+A (antisense GGACAATGGTTGCTCA; sugars from the 5' end l3 d10 l1 d1 l1, all phosphorothioate, methylation of C not given here) [A04030H] | 0.10 | 0.38 | 0.19 | 0.07 | – | – |
| +G*+G*+C*G*A*A*A*T*T*G*C*+A*+G*+A (antisense GGCGAAATTGCAGA; sugars from the 5' end l3 d8 l3, all phosphorothioate, methylation of C not given here) [A04001H] | 0.58 | 0.25 | 0.58 | 0.25 | – | – |
| +G*G*+T*T*T*G*T*G*T*G*A*G*+A*G*+C (antisense GGTTTGTGTGAGAGC; sugars from the 5' end ldldddddddddldl, all phosphorothioate, methylation of C not given here) [A04062H] | – | – | – | – | 0.17 | 0.01 |
| +G*T*+C*A*A*T*C*C*T*G*C*T*C*A*+A*+C (antisense GTCAATCCTGCTCAAC; sugars from the 5' end l1 d1 l1 d11 l2, all phosphorothioate, methylation of C not given here) [A04038H] | 0.29 | * | 0.56 | 0.20 | – | – |
| +T*+A*+C*T*C*C*A*G*C*G*T*A*A*+G*+A*+T (antisense TACTCCAGCGTAAGAT; sugars from the 5' end l3 d10 l3, all phosphorothioate, methylation of C not given here) [A04027H] | 0.58 | 0.24 | 0.58 | 0.24 | – | – |
| +T*+A*+G*T*A*A*G*C*C*C*T*G*+A*+T*+G (antisense TAGTAAGCCCTGATG; sugars from the 5' end l3 d9 l3, all phosphorothioate, methylation of C not given here) [A04055H] | – | – | – | – | 0.52 | 0.03 |
